Assay results: patent US20200030342A1, “DEHYDROEPIANDROSTERONE (DHEA) SUPPL[…] FEMALE SEXUAL DESIRE AND FUNCTION IN PRE-[…]” (American Infertility of New York, P.C., priority 2018, published 2020)

Columns and labels:
[1] = Endocrine evaluation: serum hormone levels before and after DHEA supplementation; assay type: in vivo, women
From the text: (§1) All patients in the study were asked to complete the self-reported Female Sexual Function Index (FSFI) questionnaire^31 prior to initiation to DHEA supplements and again 4-8 weeks later. The patients' fertility treatments were not affected by their participation in this study, in laboratory investigations, and/or timing of procedures. Patients underwent the same standard endocrine evaluations all patients undergo at the Center for Human Reproduction, including measurement of serum androgen levels: DHEA, DHEAS, total (TT) and free testosterone (FT) before, and 4-8 weeks after, initiating 25 mg of oral DHEA supplementation TID. All here presented hormone levels were obtained by commercial assays (LabCorp, Burlington, N.C.). All androgen levels were measured using high-pressure liquid chromatography/tandem mass spectrometry.
The measurement procedures for measuring serum androgen and FSH are conventional. The formulation for an oral dosage of DHEA is conventional.

[2] = tested on: premenopausal infertile women; test: Female Sexual Function Index (FSFI) questionnaire before and after DHEA supplementation, observational study; assay type: in vivo
Description: An observational study was conducted in an academically affiliated private fertility center. Patients included 87 premenopausal infertile women, 50 of whom completed the study including the Female Sexual Function Index (FSFI) questionnaires and comprehensive endocrine evaluation before and 4-8 weeks after initiating 25 mg of oral micronized DHEA TID. An example of a FSFI questionnaire is in a FSFI Scoring Appendix at the end of this patent application together with a discussion as to the manner of determining FSFI domain scores and full-scale score, which establish FSFI baselines.
as §1
Pearson correlation was used to investigate relationships between FSFI scores and patient demographics, as well as, hormone levels. Comparisons of FSFI scores and endocrine parameters before—and after—DHEA supplementation were made using paired T-tests. Based on starting FSFI scores patients were further subdivided into quartiles. Patient responses before and after DHEA supplementation from those in lowest and highest quartiles were then compared. Groups were compared using a two-sampled T-test or chi-square test. A P-value <0.05 was considered significant. All analyses were conducted using SAS version 9.4 (SAS Institute Inc. Cary, N.C.).
The individual domain scores and full scale (overall) score of the FSFI can be derived from the computational formula outlined in the table below. For individual domain scores, add the scores of the individual items that comprise the domain and multiply the sum by the domain factor (see below). Add the six domain scores to obtain the full scale score. […] Subject scores can be entered in the right-hand colum.

[3] = Center's experience with DHEA treatment of infertile patients: testosterone levels in response to DHEA or transdermal testosterone; assay type: in vivo, women
From the text: One purpose of DHEA supplementation is raising testosterone levels. In other words, the biologically active hormone is testosterone. Its application, however, has more side effects. But some patients have a hard time converting DHEA to testosterone [Shohat-Tal A, Sen A, Barad D H, Kushnir V, Gleicher N. Genetics of androgen metabolism in women with infertility and hypoandrogenism. Nat Rev Endocrinol 2015; 11(7):429-441] and, therefore, must be treated directly with testosterone. The testosterone dosage is 0.05 mg transdermal by pump between once to 2-times per day for the same time period that DHEA supplementation dosages are taken. The peripheral testosterone levels and SHBG in blood are monitored and adjusted accordingly. Sex hormone binding globulin (SHBG) is a protein that is produced by the liver and binds tightly to the hormones testosterone, dihydrotestosterone (DHT), and estradiol (an estrogen). If patients require testosterone directly, the DHEA supplementation is still continued.

[4] = Baseline FSFI Score < 25.7, N = 12
[5] = Baseline FSFI Score ≥ 31.9, N = 13
[6] = whole group N=50, DHEA 25 mg TID 4-8 weeks, mean change
[7] = lowest starting FSFI score quartile (<25.7)
[8] = whole group N=50, DHEA 25 mg TID 4-8 weeks, mean change of domain score

For `C[C@]12CC[C@H](O)CC1=CC[C@@H]1[C@@H]2CC[C@]2(C)C(=O)CC[C@@H]12` [DHEA, dehydroepiandrosterone], the “Δ Hormone: AMH” value [1, 4] was 0.0 ± 0.6 ng/mL, the “Δ Hormone: Cortisol” value [1, 4] was 2.5 ± 1.6 µg/dL and the “Δ Hormone: DHEA” value [1, 4] was 291.0 ± 227.7 ng/dL. For the same molecule, the “Δ Hormone: FSH” value [1, 4] was −3.6 ± 2.6 mIU/mL, the “Δ Hormone: Free Testosterone” value [1, 4] was 1.8 ± 1.3 pg/mL and the “Δ Hormone: SHBG” value [1, 4] was -15.8 ± 41.1 nmol/L. For the same molecule, the “Δ Hormone: Total Testosterone” value [1, 4] was 16.4 ± 18.5 ng/dL, the “Δ Hormone: AMH” value [1, 5] was 0.1 ± 0.6 ng/mL and the “Δ Hormone: Cortisol” value [1, 5] was -0.4 ± 5.5 µg/dL. The “Δ Hormone: DHEA” value [1, 5] was 275.7 ± 186.6 ng/dL, the “Δ Hormone: FSH” value [1, 5] was −1.6 ± 3.5 mIU/mL and the “Δ Hormone: Free Testosterone” value [1, 5] was 0.5 ± 1.4 pg/mL. The “Δ Hormone: SHBG” value [1, 5] was -21.0 ± 51.6 nmol/L, the “Δ Hormone: Total Testosterone” value [1, 5] was 11.8 ± 18.6 ng/dL and the “Δ Hormone: AMH” value [1, 6] was 0.0 ng/mL. The “Δ Hormone: Cortisol” value [1, 6] was 1.3 µg/dL, the “Δ Hormone: FSH” value [1, 6] was −2.6 mIU/mL and the “Δ Hormone: Free Testosterone” value [1, 6] was 1.4 pg/mL. For the same molecule, the “Δ Hormone: SHBG” value [1, 6] was -24.0 nmol/L, the “Δ Hormone: Total Testosterone” value [1, 6] was 15.1 ng/dL and the “Δ Hormone: DHEA” value ([1]; whole group N=50, DHEA 25 mg TID 4-8 weeks, mean change of serum level) was 235.1 ng/dL. For the same molecule, the “AMH levels, change” value ([1]; whole study group) was “no change”, the “Cortisol levels, change” value ([1]; whole study group) was “no change” and the “FSH levels, decrease from baseline” value ([1]; whole study group, baseline 10.3±5.4 mIU/mL) was 2.6±4.4 mIU/mL. For the same molecule, the “SHBG, decrease from baseline” value ([1]; whole study group, baseline 92.7±43.2 nmol/L) was 24.0 ± 39.4 nmol/L, the “All serum androgen levels (DHEA, DHEAS, TT, FT), change from baseline” value ([1]; whole study group, each P<0.0001) was “increased” and the “Δ Arousal” value [2, 4] was 1.3±1.7. The “Δ Desire” value [2, 4] was 1.0±0.8, the “Δ Lubrication” value [2, 4] was 0.8±2.3 and the “Δ Orgasm” value [2, 4] was 1.0±2.3. The “Δ Pain” value [2, 4] was 0.9±2.3, the “Δ Satisfaction” value [2, 4] was 0.9±1.3 and the “Δ Arousal” value [2, 5] was −0.2 ± 0.5. The “Δ Desire” value [2, 5] was −0.1 ± 0.6, the “Δ Lubrication” value [2, 5] was −0.1 ± 0.6 and the “Δ Orgasm” value [2, 5] was −0.5 ± 1.1. For the same molecule, the “Δ Pain” value [2, 5] was −0.1 ± 0.4, the “Δ Satisfaction” value [2, 5] was 0.0 ± 0.7 and the “Δ FSFI Score” value ([2]; highest starting FSFI quartile, Baseline FSFI Score ≥ 31.9, N = 13, DHEA 25 mg TID 4-8 weeks) was −1.0 ± 2.7. For the same molecule, the “Δ FSFI Score” value ([2]; lowest starting FSFI quartile, Baseline FSFI Score < 25.7, N = 12, DHEA 25 mg TID 4-8 weeks) was 6.1±8.0, the “Improvement in domain arousal” value [2, 7] was 46% and the “Improvement in domain desire” value [2, 7] was 40%. The “Improvement in domain lubrication” value [2, 7] was 33%, the “Improvement in domain orgasm” value [2, 7] was 54% and the “Improvement in domain pain” value [2, 7] was 25%. The “Improvement in domain satisfaction” value [2, 7] was 24%, the “Increase in total FSFI score” value [2, 7] was 34% and the “Δ Arousal: Confidence” value [2, 6] was 0.4. For the same molecule, the “Δ Arousal: Frequency” value [2, 6] was 0.3, the “Δ Arousal: Level” value [2, 6] was 0.4 and the “Δ Arousal: Satisfaction” value [2, 6] was 0.4. For the same molecule, the “Δ Desire: Frequency” value [2, 6] was 0.5, the “Δ Desire: Level” value [2, 6] was 0.5 and the “Δ Lubrication: Difficulty (first line)” value [2, 6] was 0.3. The “Δ Lubrication: Difficulty (second line, after Maintaining)” value [2, 6] was 0.2, the “Δ Lubrication: Frequency” value [2, 6] was 0.3 and the “Δ Lubrication: Maintaining” value [2, 6] was 0.3. For the same molecule, the “Δ Orgasm: Difficulty” value [2, 6] was 0.1, the “Δ Orgasm: Frequency” value [2, 6] was 0.0 and the “Δ Orgasm: Satisfaction” value [2, 6] was 0.1. For the same molecule, the “Δ Pain: During” value [2, 6] was 0.3, the “Δ Pain: Following” value [2, 6] was 0.2 and the “Δ Pain: Level” value [2, 6] was 0.0. For the same molecule, the “Δ Satisfaction: Closeness” value [2, 6] was 0.3, the “Δ Satisfaction: Overall” value [2, 6] was 0.3 and the “Δ Satisfaction: Relationship” value [2, 6] was 0.2. The “Δ Arousal” value [2, 8] was 0.5, the “Δ Desire” value [2, 8] was 0.6 and the “Δ Lubrication” value [2, 8] was 0.4. The “Δ Orgasm” value [2, 8] was 0.1, the “Δ Pain” value [2, 8] was 0.2 and the “Δ Satisfaction” value [2, 8] was 0.3. The “Δ FSFI Score” value ([2]; whole group, 50 premenopausal infertile women, oral micronized DHEA 25 mg TID, before vs 4-8 weeks after, mean) was 2.0, the “Domain score for arousal, increase” value ([2]; whole study group) was 12% and the “Domain score for desire, increase” value ([2]; whole study group) was 17%. For the same molecule, the “Domain score for orgasm, change” value ([2]; whole study group) was “no significant changes”, the “Domain score for pain, change” value ([2]; whole study group) was “no significant changes” and the “Domain score for satisfaction, change” value ([2]; whole study group) was “no significant changes”. The “Domain score for lubrication, trend towards improvement” value ([2]; whole study group, P=0.0551) was 8%, the FSFI score increase ([2]; whole study group, following DHEA supplementation) was 7% and the “FSFI score after DHEA supplementation” value ([2]; whole study group, from baseline 27.2±6.9) was 29.2±5.6. The “Patients who do not raise their testosterone levels in response to DHEA supplementation” value ([3]; infertile patients overall, a little more among African-descent women) was “less than 5%”.
With `C[C@]12CC[C@H]3[C@@H](CCC4=CC(=O)CC[C@@]43C)[C@@H]1CC[C@@H]2O` [testosterone] the “Testosterone levels achieved in patients not responding to DHEA” value ([3]; 0.05 mg transdermal by pump once to 2-times per day, same time period) was “very similar testosterone levels are achieved”.
